Results taken from the NIST ThermoML archive (doi:10.1021/je800945e).
± gives the expanded uncertainty stated by the source.

Settings: Crystal; visual observation

## Nc1cccnc1 [β-aminopyridine]
  Normal melting temperature: 64.50 ± 0.5 °C
